In patent US10494332B2, “Protein tyrosine phosphatases or SHP2 inhibitors and uses thereof” (Indiana University Research and Technology Corporation, priority 2015, dated 2019):
Where “and” joins values, the source holds several entries; their conditions need not be identical. Identical values can stand only once.

These compounds were tested against T1, LMWPTP (Homo sapiens, UniProt P24666) (assay: PTP inhibition assay (pNPP)). Details: pH 7.
T1 sequence (P24666 1-158): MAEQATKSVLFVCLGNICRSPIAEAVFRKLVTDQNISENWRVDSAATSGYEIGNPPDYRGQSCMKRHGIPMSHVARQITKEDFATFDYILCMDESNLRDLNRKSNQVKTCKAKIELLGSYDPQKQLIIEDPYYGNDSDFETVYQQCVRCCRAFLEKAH
Assay type: biochemical

Row | SMILES | IC50
1 | Cc1c(Br)cc(NC(=O)C(c2ccccc2)S(=O)(=O)O)cc1Br (centres unmarked) [Compound L319M34] | 5.3 µM
2 | O=C(Nc1ccc(OCc2ccccc2)c(Cl)c1)C(c1ccccc1)S(=O)(=O)O (centres unmarked) [Compound L319M50] | 12.1 µM
3 | O=C(Nc1ccc2nc(C(F)(F)F)[nH]c2c1)C(c1ccccc1)S(=O)(=O)O (centres unmarked) [Compound L319M54] | 5.6 µM
4 | O=C(Nc1ccc(N2CCOCC2)cc1)C(c1ccccc1)S(=O)(=O)O (centres unmarked) [Compound L319M68] | 8.1 µM
5 | O=C(Nc1cnc2ccccc2c1)C(c1ccccc1)S(=O)(=O)O (centres unmarked) [Compound L319M88] | 7.3 µM

Same assay, conditions: pNPP at Km, pH 7.0, 25° C.

Row | SMILES | IC50
6 | Cc1c(Br)cc(NC(=O)C(c2ccccc2)S(=O)(=O)O)cc1Br (centres unmarked) [Compound L319M34] | 4.5 µM
7 | O=C(Nc1ccc2nc(C(F)(F)F)[nH]c2c1)C(c1ccccc1)S(=O)(=O)O (centres unmarked) [Compound L319M54] | 7.96 µM and 5 µM
8 | O=C(Nc1ccc(N2CCOCC2)cc1)C(c1ccccc1)S(=O)(=O)O (centres unmarked) [Compound L319M68] | 20 µM
9 | O=C(Nc1cnc2ccccc2c1)C(c1ccccc1)S(=O)(=O)O (centres unmarked) [Compound L319M88] | 6.1 µM

The compounds below were run against YopH (Yersinia enterocolitica, UniProt P15273) (assay: biochemical). Details: not given.
Sequence of YopH (P15273 whole entry, looked up): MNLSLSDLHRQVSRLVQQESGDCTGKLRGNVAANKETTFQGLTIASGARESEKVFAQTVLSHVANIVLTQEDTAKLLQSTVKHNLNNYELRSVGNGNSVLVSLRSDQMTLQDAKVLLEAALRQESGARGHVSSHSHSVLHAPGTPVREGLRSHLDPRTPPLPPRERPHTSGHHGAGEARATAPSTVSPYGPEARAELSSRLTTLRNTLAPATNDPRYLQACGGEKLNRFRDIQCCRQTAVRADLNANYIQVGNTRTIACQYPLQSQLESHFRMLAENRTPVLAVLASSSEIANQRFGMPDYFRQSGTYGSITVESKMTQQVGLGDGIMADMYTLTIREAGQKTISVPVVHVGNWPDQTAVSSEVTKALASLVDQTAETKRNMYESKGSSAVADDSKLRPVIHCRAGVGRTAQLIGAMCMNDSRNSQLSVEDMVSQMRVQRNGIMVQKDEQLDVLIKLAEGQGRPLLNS

Row | SMILES | IC50
10 | Cc1c(Br)cc(NC(=O)C(c2ccccc2)S(=O)(=O)O)cc1Br (centres unmarked) [Compound L319M34] | > 200 µM
11 | O=C(Nc1ccc2nc(C(F)(F)F)[nH]c2c1)C(c1ccccc1)S(=O)(=O)O (centres unmarked) [Compound L319M54] | > 200 µM
12 | O=C(Nc1ccc(N2CCOCC2)cc1)C(c1ccccc1)S(=O)(=O)O (centres unmarked) [Compound L319M68] | > 200 µM
13 | O=C(Nc1cnc2ccccc2c1)C(c1ccccc1)S(=O)(=O)O (centres unmarked) [Compound L319M88] | > 200 µM

These compounds were tested against T2, LYP (Homo sapiens, UniProt Q9Y2R2) (assay: PTP inhibition assay (pNPP)). Details: pNPP at Km, pH 7.0, 25° C.
T2 sequence (Q9Y2R2 1-807): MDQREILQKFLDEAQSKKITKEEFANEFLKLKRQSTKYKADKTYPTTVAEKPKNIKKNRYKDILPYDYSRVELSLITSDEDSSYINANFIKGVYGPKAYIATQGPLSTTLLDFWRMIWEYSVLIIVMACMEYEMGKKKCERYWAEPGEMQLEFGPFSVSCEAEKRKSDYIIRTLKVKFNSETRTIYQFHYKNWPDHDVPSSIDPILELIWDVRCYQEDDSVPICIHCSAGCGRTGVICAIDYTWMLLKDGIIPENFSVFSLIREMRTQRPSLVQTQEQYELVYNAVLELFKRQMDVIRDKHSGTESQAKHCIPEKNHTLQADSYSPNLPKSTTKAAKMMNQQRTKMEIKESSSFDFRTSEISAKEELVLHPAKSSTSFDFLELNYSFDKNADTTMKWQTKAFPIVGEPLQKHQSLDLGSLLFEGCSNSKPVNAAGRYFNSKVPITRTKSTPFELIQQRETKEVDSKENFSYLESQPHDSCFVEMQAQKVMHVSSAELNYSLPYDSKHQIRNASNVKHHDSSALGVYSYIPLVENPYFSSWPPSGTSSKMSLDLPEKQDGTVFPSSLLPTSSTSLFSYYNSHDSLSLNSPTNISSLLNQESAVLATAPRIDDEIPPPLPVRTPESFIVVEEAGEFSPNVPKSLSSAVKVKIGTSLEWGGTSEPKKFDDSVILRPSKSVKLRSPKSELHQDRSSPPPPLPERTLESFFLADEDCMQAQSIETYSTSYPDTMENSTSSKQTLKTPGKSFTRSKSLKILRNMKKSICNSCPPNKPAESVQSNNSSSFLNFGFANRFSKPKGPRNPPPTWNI
Assay type: biochemical

Row | SMILES | IC50
14 | O=C(Nc1ccc(OCc2ccccc2)c(Cl)c1)C(c1ccccc1)S(=O)(=O)O (centres unmarked) [Compound L319M50] | > 200 µM
15 | O=C(Nc1ccc2nc(C(F)(F)F)[nH]c2c1)C(c1ccccc1)S(=O)(=O)O (centres unmarked) [Compound L319M54] | > 200 µM
16 | O=C(Nc1ccc(N2CCOCC2)cc1)C(c1ccccc1)S(=O)(=O)O (centres unmarked) [Compound L319M68] | > 200 µM
17 | O=C(Nc1cnc2ccccc2c1)C(c1ccccc1)S(=O)(=O)O (centres unmarked) [Compound L319M88] | > 200 µM

The compounds below were run against SHP1 (Homo sapiens, UniProt P29350) (assay: PTP inhibition assay (pNPP)). Details: pNPP at Km, pH 7.0, 25° C.
Assay type: biochemical

Sequence of SHP1 (P29350 whole entry): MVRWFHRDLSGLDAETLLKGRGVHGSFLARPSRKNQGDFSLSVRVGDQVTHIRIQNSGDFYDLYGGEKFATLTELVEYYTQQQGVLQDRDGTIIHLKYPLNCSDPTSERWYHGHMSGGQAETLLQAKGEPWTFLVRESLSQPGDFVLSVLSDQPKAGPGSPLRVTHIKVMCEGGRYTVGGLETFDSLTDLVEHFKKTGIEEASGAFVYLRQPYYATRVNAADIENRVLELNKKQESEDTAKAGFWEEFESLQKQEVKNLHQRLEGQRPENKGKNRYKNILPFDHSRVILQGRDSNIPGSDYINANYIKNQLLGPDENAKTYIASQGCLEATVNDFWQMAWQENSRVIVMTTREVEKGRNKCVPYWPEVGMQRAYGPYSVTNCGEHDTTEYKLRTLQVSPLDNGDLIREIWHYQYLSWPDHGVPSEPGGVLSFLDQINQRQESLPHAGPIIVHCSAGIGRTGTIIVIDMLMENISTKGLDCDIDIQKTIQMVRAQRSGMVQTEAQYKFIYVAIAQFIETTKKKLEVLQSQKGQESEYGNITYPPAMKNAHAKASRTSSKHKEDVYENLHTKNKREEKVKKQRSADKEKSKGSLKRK

Row | SMILES | IC50
18 | Cc1c(Br)cc(NC(=O)C(c2ccccc2)S(=O)(=O)O)cc1Br (centres unmarked) [Compound L319M34] | 55.5 µM
19 | O=C(Nc1ccc(OCc2ccccc2)c(Cl)c1)C(c1ccccc1)S(=O)(=O)O (centres unmarked) [Compound L319M50] | 53.2 µM
20 | O=C(Nc1ccc2nc(C(F)(F)F)[nH]c2c1)C(c1ccccc1)S(=O)(=O)O (centres unmarked) [Compound L319M54] | > 200 µM
21 | O=C(Nc1ccc(N2CCOCC2)cc1)C(c1ccccc1)S(=O)(=O)O (centres unmarked) [Compound L319M68] | > 200 µM
22 | O=C(Nc1cnc2ccccc2c1)C(c1ccccc1)S(=O)(=O)O (centres unmarked) [Compound L319M88] | > 200 µM

These compounds were tested against T3, SHP2 (Homo sapiens, UniProt Q06124) (assay: SHP2 phosphatase inhibition assay (pNPP)). Details: pNPP at Km, pH 7.0, 25° C.; read-out: IC50 SHP2.
T3 sequence (Q06124 224-528): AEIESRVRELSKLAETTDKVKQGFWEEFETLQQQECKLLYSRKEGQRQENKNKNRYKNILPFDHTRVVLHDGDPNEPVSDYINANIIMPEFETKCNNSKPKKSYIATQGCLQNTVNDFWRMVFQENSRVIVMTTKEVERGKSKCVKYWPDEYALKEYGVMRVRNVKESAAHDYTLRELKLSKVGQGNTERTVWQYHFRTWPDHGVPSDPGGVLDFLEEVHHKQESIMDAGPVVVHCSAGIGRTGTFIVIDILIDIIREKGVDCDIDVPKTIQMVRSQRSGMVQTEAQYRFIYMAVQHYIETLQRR
Assay type: biochemical

Row | SMILES | IC50
23 | Cc1c(Br)cc(NC(=O)C(c2ccccc2)S(=O)(=O)O)cc1Br (centres unmarked) [Compound L319M34] | > 100 µM
24 | O=C(Nc1ccc(OCc2ccccc2)c(Cl)c1)C(c1ccccc1)S(=O)(=O)O (centres unmarked) [Compound L319M50] | > 200 µM
25 | O=C(Nc1ccc2nc(C(F)(F)F)[nH]c2c1)C(c1ccccc1)S(=O)(=O)O (centres unmarked) [Compound L319M54] | > 200 µM
26 | O=C(Nc1ccc(N2CCOCC2)cc1)C(c1ccccc1)S(=O)(=O)O (centres unmarked) [Compound L319M68] | > 200 µM
27 | O=C(Nc1cnc2ccccc2c1)C(c1ccccc1)S(=O)(=O)O (centres unmarked) [Compound L319M88] | > 200 µM

The compounds below were run against T4, Meg2 (Homo sapiens, UniProt P43378) (assay: PTP inhibition assay (pNPP)). Details: not given.
T4 sequence (P43378 1-593): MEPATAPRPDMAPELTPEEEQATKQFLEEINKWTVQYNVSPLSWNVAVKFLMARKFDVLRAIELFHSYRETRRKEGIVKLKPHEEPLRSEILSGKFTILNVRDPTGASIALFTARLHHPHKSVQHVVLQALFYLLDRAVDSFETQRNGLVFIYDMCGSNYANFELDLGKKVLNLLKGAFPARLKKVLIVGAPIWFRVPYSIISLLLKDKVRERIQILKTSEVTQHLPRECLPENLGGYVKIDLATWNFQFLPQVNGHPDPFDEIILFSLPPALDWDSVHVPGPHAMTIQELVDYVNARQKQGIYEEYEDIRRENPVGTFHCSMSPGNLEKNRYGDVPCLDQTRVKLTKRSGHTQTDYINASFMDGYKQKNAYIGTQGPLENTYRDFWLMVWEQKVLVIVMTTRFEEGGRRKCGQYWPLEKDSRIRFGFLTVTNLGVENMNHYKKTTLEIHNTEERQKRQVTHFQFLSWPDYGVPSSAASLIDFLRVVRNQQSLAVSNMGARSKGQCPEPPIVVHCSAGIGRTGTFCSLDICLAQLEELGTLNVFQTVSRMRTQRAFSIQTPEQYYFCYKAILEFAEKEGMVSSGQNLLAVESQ
Assay type: biochemical

Row | SMILES | IC50
28 | O=C(Nc1ccc2nc(C(F)(F)F)[nH]c2c1)C(c1ccccc1)S(=O)(=O)O (centres unmarked) [Compound L319M54] | > 200 µM
29 | O=C(Nc1ccc(N2CCOCC2)cc1)C(c1ccccc1)S(=O)(=O)O (centres unmarked) [Compound L319M68] | > 200 µM
30 | O=C(Nc1cnc2ccccc2c1)C(c1ccccc1)S(=O)(=O)O (centres unmarked) [Compound L319M88] | > 200 µM

These compounds were tested against PTPα (Homo sapiens, UniProt P18433) (assay: PTP inhibition assay (pNPP)). Details: not given.
Assay type: biochemical

Sequence of PTPα (P18433 20-802): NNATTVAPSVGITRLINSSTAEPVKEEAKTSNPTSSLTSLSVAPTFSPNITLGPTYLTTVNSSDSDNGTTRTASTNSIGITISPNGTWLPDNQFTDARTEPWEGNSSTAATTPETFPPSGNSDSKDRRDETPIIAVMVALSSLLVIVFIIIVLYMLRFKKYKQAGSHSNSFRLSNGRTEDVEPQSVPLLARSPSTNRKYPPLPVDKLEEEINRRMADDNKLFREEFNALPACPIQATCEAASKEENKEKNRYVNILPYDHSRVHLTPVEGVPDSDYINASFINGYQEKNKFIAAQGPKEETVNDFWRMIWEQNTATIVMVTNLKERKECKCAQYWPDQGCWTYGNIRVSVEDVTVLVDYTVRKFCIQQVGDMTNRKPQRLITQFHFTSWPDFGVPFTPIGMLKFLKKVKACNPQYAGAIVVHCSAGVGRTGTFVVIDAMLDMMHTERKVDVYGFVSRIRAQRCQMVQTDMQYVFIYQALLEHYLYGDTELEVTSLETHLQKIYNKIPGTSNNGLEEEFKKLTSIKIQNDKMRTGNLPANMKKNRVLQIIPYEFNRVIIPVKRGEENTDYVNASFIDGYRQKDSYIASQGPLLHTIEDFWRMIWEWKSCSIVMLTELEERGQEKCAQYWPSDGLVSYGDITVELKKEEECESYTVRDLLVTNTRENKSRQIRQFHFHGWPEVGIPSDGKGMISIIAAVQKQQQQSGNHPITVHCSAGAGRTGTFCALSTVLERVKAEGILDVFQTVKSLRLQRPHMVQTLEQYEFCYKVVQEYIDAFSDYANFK

Row | SMILES | IC50
31 | O=C(Nc1ccc2nc(C(F)(F)F)[nH]c2c1)C(c1ccccc1)S(=O)(=O)O (centres unmarked) [Compound L319M54] | > 200 µM
32 | O=C(Nc1ccc(N2CCOCC2)cc1)C(c1ccccc1)S(=O)(=O)O (centres unmarked) [Compound L319M68] | > 200 µM
33 | O=C(Nc1cnc2ccccc2c1)C(c1ccccc1)S(=O)(=O)O (centres unmarked) [Compound L319M88] | > 200 µM

These compounds were tested against T5, STEP (Homo sapiens, UniProt P54829) (assay: PTP inhibition assay (pNPP)). Details: IC50 STEP, pNPP at Km, pH 7.0, 25° C.
T5 sequence (P54829 1-565): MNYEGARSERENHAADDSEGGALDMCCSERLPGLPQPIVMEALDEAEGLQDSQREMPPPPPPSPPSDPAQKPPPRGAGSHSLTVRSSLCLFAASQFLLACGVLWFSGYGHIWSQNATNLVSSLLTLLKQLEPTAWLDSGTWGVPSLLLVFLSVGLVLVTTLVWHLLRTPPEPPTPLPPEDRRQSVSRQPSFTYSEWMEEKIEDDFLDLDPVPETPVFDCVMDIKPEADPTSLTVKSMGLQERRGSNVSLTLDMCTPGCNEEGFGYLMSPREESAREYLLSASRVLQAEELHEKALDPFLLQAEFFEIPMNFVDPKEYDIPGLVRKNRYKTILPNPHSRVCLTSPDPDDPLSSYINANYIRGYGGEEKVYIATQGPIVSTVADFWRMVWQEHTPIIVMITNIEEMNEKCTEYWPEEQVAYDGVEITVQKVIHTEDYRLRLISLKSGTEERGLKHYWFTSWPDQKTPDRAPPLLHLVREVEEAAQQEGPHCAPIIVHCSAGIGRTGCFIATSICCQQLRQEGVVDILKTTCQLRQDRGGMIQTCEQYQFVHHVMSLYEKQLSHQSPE
Assay type: biochemical

Row | SMILES | IC50
34 | Cc1c(Br)cc(NC(=O)C(c2ccccc2)S(=O)(=O)O)cc1Br (centres unmarked) [Compound L319M34] | > 200 µM

Same assay, conditions: pNPP at Km, pH 7.0, 25° C.; read-out: IC50 STEP

Row | SMILES | IC50
35 | O=C(Nc1ccc(OCc2ccccc2)c(Cl)c1)C(c1ccccc1)S(=O)(=O)O (centres unmarked) [Compound L319M50] | > 200 µM
36 | O=C(Nc1ccc2nc(C(F)(F)F)[nH]c2c1)C(c1ccccc1)S(=O)(=O)O (centres unmarked) [Compound L319M54] | > 200 µM
37 | O=C(Nc1ccc(N2CCOCC2)cc1)C(c1ccccc1)S(=O)(=O)O (centres unmarked) [Compound L319M68] | > 200 µM
38 | O=C(Nc1cnc2ccccc2c1)C(c1ccccc1)S(=O)(=O)O (centres unmarked) [Compound L319M88] | > 200 µM
